Series [1] concerns HRECs. The series can be described thus: Cell proliferation assay (alamarBlue), HRECs. In kind it is cell-based, human. As to the method: Proliferation of cells was monitored as described in Basavarajappa et al., PLoS One 9 (2014). Briefly, after FECH knockdown 2,500 cells in 100 μL of growth medium were plated in each well of 96-well clear-bottom black plates and incubated for 24 hours. Then, compound/DMSO vehicle (final DMSO concentration of 1%) were added and the plates were incubated for 44 hours in 100 μL media at 37° C. and 5% CO2. Then, 11.1 μL of alamarBlue reagent was added to each well of the plate and 4 hours later fluorescence readings were taken at excitation and emission wavelengths of 560 nm and 590 nm respectively using a Synergy H1 plate reader (BioTek, Winooski, Vt., USA). The concentration ranges of griseofulvin and NMPP used were 0.5 nM-500 μM and 0.1 nM-100 μM respectively.

In series [2] the test system is HRECs. Put plainly: Scratch-wound migration assay. Type of series: cell-based, human. The method, then:
The migration of HRECs was monitored as described in Basavarajappa et al., PLoS One 9, e95694 (2014). Briefly, HRECs were grown until confluency in 6-well plates and then serum starved overnight in EBM-2 medium. Then, using a sterile 10 μL tip, a scratch was introduced in each well and fresh EGM-2 medium containing DMSO or different concentrations of compounds was added to the wells. For knockdown experiments, the scratch was introduced 48 hours after transfection and fresh medium was added to the wells. Photographs of the wells were taken at different time points to measure the number of migrated cells into the scratched area.

The test system of series [3] is HRECs. The series can be described thus: In vitro Matrigel tube formation assay. Type of series: cell-based, human. As to the method:
The ability of HRECs to form tubes in vitro was monitored as described in Basavarajappa et al., J Med Chem 58, pp. 5015-5027 (2015). Briefly, HRECs were treated with the indicated concentrations of compounds or DMSO or siRNAs for 48 hours and then 15,000 HRECs in 100 μL of EGM-2 medium containing siRNAs, DMSO or compounds were added to each well of a 96-well plate that was pre-coated with 50 μL of Matrigel basement membrane. Photographs of each well at different time points were taken to measure the tube formation using the Angiogenesis Analyzer plugin in ImageJ software (v.1.48).

For series [4], the system named is mouse choroid-sclera. Put plainly: Choroidal sprouting assay. Type of series: cell-based. The note with it: ex vivo, 48 hours with compound. As to the method:
To assess choroidal sprouting, pieces of choroid-sclera dissected from euthanized mouse eyes were embedded in Matrigel and grown in EGM-2 medium plus antibiotics for 72 hours to allow sprouting to initiate. The indicated concentrations of griseofulvin (in DMSO, final DMSO concentration 1%) were added and growth allowed to proceed for 48 hours. Images were taken and growth quantified by measuring distance from the edge of the choroidal piece to the growth front in 4 directions per sample.

The test system of series [5] is choroidal neovascularization. The series can be described thus: L-CNV model (laser-induced choroidal neovascularization). The note with it: L-CNV mice. In kind it is in vivo, mouse.
The nature of series [6]: Oral griseofulvin systemic effects (mouse and liver weights). In kind it is in vivo. As to conditions: oral feeding. The method, then:
Mice were fed griseofulvin for a total of 3 weeks, with chow changed every 2-3 days. Standard mouse chow (5 g/mouse/day) was mixed in water (2.2 mL H2O/gram chow), soaked for 15 minutes, then mashed. Griseofulvin doses were prepared at 0.0% (control), 0.5%, and 1.0% with 0.0 g, 0.5 g, and 1.0 g griseofulvin: 10 mL corn oil: 100 g mouse chow ratio, respectively. […] The corn oil solutions and mouse chow mixture were manually mixed thoroughly for 10 minutes. During treatment, the mice were examined and weighed 3 times/week (FIG. 1A). On Day 8, mice underwent L-CNV as above, and were imaged by OCT at Day 15 and Day 22, at which time they were euthanized. The eyes were enucleated and flatmounts prepared as above. The livers were dissected out and weighed (FIG. 1B).

For series [7] the following is noted: antifungal treatment of humans; cited from earlier work.
The target in series [8] is T1, FECH (Homo sapiens, UniProt P22830).
T1 construct: host or cells: HRECs (human retinal endothelial cells)
T1 sequence (P22830 55-423): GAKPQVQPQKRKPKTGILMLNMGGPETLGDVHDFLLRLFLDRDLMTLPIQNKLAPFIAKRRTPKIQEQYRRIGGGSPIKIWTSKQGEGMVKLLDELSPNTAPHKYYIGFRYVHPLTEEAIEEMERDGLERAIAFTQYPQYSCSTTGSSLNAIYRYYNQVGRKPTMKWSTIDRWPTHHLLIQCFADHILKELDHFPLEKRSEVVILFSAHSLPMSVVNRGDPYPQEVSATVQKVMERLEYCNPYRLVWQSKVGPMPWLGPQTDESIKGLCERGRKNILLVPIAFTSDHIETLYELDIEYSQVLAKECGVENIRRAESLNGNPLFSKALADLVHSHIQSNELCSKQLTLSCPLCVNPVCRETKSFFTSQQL
Put plainly: PPIX build-up assay. As to conditions: HRECs, 5-ALA induced. Type of series: cell-based. As to the method: HRECs were grown in a 6-well plate until confluent. Then, cells were serum starved overnight in EBM-2 medium. Fresh EGM-2 medium containing DMSO or compounds was added to cells, and they were incubated at 37° C. for 1 hour followed by addition of 1 mM 5-ALA to increase flux through the heme biosynthetic pathway. After 3 hours of incubation in the dark at 37° C., the cells were trypsinized and lysed in buffer containing 25 mM HEPES-NaOH pH 7.4, 150 mM NaCl, 1% NP-40, 10% glycerol and 1 mM PMSF. The cell lysates were incubated in the dark at 4° C. for 20 minutes on a shaker and centrifuged at 12000×g for 15 minutes. Supernatants were collected for analysis. In a 384-well black plate, 20 μL of supernatant was mixed with 20 μL of 1:1 solution of 2 M perchloric acid and methanol. After 5 minutes of incubation, fluorescence readings were taken at excitation and emission wavelengths of 407 nm and 610 nm using the Synergy plate reader.

Series [9] deals with endothelial cells. Put plainly: Anti-proliferative activity of cremastranone. As to conditions: endothelial versus non-endothelial cells. In kind it is cell-based, human.
The target of series [10] is T2, ferrochelatase (Sus scrofa, UniProt F1S1X4).
T2 construct: from tissue; host or cells: porcine brain lysate (S2 and S3 supernatants)
T2 sequence (F1S1X4 1-433): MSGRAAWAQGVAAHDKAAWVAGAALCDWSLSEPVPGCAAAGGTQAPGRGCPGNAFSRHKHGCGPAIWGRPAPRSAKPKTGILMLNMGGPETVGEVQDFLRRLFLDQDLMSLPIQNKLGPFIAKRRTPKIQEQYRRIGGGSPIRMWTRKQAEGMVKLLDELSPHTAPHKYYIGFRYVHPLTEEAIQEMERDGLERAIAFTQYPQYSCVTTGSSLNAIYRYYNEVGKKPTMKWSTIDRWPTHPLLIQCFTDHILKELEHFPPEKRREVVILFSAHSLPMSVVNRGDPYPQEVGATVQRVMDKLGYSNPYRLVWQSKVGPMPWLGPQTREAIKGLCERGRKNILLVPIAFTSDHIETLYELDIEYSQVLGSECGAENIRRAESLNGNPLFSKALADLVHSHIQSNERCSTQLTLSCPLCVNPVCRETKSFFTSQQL
Put plainly: Photoaffinity pull down from porcine brain lysate. Type of series: binding. As to conditions: competition with excess (1 mM) cremastranone isomer; immunoblot band intensity. The method, then:
Synthesis and characterization of affinity reagents 2 and 3 are shown in WO2014182695A1, filed May 6, 2014, and incorporated by reference to the extent it is consistent herewith. Compounds 1 and 4 were synthesized as described in Lee et al., Org Biomol Chem 28, p. 28 (2014); Basavarajappa et al., PLoS One 9, e95694 (2014). For pulldowns, Neutravidin agarose beads (1 mL of 50% slurry) were washed three times in buffer A containing 25 mM Tris-HCl pH 7.4, 150 mM NaCl, 2.5 mM sodium pyrophosphate, 1 mM phenylmethylsulfonyl fluoride (PMSF), 0.1 mM sodium orthovanadate, 10 μg/mL aprotinin and 10 μg/mL leupeptin. The beads were then incubated with 100 μM affinity or control reagents 2 or 3 overnight at 4° C. with rotation. […]
The beads were collected by centrifugation at 500×g for 5 minutes, then resuspended in 1 mL of buffer B and irradiated with 365 nm UV light (Mercury bulb H44GS100 from Sylvania in a Black-Ray 100 A long-wave UV lamp) in a 60 mm Petri dish for 30 minutes at 4° C. […] The eluates were then analyzed in 4-20% gradient SDS-PAGE and the protein bands were visualized using silver staining. The protein bands pulled down specifically by photo-affinity reagent were excised from the silver stained SDS-PAGE gel and analyzed by mass spectrometry (IUSM Proteomics Core). […]

In the case of `COC1=CC(=O)C[C@@H](C)[C@]12Oc1c(Cl)c(OC)cc(OC)c1C2=O` [griseofulvin], the “proliferation of HRECs” value in series [1] is “dose-dependent antiproliferative effects”. For the same compound, in series [1] (HRECs in vitro (proliferation, migration, tube formation)), the “concentration of griseofulvin needed to have effects” value is approximately 10 µM. For the same compound, the “migration of HRECs” value in series [2] is given as “inhibition of migration”. For the same compound, in series [3], the “tube formation ability of HRECs” value is recorded as “inhibition of tube formation”. The “formation of microvascular sprouts” value in series [4] is on record as “inhibited formation of microvascular sprouts”. Also, the neovascularization entry was “decreased neovascularization” in [5] (feeding 0.5% and 1% in chow); “dose-dependent results” in series [5] (single intravitreal injection 50 μM, 100 μM). Moreover, the liver weights entry in series [6] is reported as “increased”. Moreover, in series [6] (experimental timecourse), the mouse weights result is on record as “did not significantly change”. Moreover, in [7], the “concentration attained in plasma” value is 1000 to 2000 ng/mL.

Turning to `COc1ccc(CC2COc3cc(O)c(OC)c(O)c3C2=O)cc1O` (centres unmarked) [cremastranone], the “buildup of PPIX” value in series [8] was “dose-dependent buildup of PPIX”. Moreover, the “rescue of antiproliferative effects by excess 5-ALA” value in series [1] (HRECs, addition of 5-aminolevulinic acid) was “partially rescued”. For the same compound, the antiproliferative effects entry in [9] is recorded as “selective antiproliferative effects on endothelial cells”.

Consider N-methyl protoporphyrin [NMPP], for which the “proliferation of HRECs” value in [1] was “inhibited”. The “migration of HRECs” value in [2] was “inhibited”. Also, in series [3], the “tube formation ability of HRECs” value was “inhibited”.

With `COc1ccc(CC2COc3cc(OC)c(O)c(O)c3C2=O)cc1O` (single isomer, unassigned) [cremastranone isomer], the “decrease of binding of ferrochelatase to affinity reagent” value in [10] is 87%.
